The values below come from ChEMBL document CHEMBL5291721, “A preclinical secondary pharmacology resource illuminates target-adverse drug reaction associations of marketed drugs” (Nat Commun, 2023).

Experiment [1] deals with T1, Prostaglandin G/H synthase 1 (Homo sapiens, UniProt P23219). The experiment is classed as functional.
Experiment [2] has as its target Vascular endothelial growth factor receptor 2 (Homo sapiens, UniProt P35968). The experiment is classed as functional.
The target of the next experiment is T2, Adenosine receptor A3 (Homo sapiens, UniProt P0DMS8).
T2 sequence (P0DMS8 whole entry): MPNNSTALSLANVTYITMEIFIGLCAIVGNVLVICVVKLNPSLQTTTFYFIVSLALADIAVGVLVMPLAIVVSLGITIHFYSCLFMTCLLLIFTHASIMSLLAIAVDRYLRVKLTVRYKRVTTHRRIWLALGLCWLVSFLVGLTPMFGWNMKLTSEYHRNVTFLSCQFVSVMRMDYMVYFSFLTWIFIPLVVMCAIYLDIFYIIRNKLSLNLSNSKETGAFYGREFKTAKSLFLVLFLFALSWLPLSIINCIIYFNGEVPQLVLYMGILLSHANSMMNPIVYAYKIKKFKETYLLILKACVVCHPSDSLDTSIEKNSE

The target of the next experiment is Histamine H3 receptor (Homo sapiens, UniProt Q9Y5N1).
The target of experiment [3] is T3, Alpha-2A adrenergic receptor (Homo sapiens, UniProt P08913).
T3 sequence (P08913 whole entry): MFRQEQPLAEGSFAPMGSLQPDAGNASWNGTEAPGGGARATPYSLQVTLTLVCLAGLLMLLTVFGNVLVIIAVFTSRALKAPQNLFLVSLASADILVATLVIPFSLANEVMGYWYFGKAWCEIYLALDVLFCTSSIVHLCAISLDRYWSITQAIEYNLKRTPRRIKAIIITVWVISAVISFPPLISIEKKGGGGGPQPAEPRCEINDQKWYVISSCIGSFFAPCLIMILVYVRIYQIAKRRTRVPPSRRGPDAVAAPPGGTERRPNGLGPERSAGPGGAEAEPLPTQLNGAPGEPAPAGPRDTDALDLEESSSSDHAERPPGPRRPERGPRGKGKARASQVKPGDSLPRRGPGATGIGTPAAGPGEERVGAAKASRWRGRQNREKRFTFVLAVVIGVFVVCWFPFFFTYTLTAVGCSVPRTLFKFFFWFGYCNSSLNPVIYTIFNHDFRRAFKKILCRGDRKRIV

The next experiment has as its target Acetylcholinesterase (Homo sapiens, UniProt P22303). It is filed as functional.
Another experiment addresses Prothrombin (Homo sapiens, UniProt P00734). It is filed as functional.
In experiment [4] the target is cGMP-inhibited 3',5'-cyclic phosphodiesterase 3A (Homo sapiens, UniProt Q14432). The experiment is classed as functional.
The target in another experiment is T4, Thromboxane A2 receptor (Homo sapiens, UniProt P21731).
T4 sequence (P21731 whole entry): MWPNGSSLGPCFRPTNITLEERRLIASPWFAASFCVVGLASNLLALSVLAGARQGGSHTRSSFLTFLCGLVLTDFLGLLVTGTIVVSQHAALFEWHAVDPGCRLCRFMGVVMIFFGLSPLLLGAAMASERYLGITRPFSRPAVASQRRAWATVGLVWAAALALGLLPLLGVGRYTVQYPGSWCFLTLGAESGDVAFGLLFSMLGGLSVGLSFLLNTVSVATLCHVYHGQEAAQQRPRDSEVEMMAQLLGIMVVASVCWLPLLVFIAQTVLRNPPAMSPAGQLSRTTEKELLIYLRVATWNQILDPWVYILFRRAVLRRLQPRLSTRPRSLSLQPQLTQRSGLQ
The experiment is classed as functional, cell-based.

A further experiment has as its target Mu-type opioid receptor (Homo sapiens, UniProt P35372).
The target of experiment [5] is T5, Muscarinic acetylcholine receptor M2 (Homo sapiens, UniProt P08172).
T5 sequence (P08172 whole entry): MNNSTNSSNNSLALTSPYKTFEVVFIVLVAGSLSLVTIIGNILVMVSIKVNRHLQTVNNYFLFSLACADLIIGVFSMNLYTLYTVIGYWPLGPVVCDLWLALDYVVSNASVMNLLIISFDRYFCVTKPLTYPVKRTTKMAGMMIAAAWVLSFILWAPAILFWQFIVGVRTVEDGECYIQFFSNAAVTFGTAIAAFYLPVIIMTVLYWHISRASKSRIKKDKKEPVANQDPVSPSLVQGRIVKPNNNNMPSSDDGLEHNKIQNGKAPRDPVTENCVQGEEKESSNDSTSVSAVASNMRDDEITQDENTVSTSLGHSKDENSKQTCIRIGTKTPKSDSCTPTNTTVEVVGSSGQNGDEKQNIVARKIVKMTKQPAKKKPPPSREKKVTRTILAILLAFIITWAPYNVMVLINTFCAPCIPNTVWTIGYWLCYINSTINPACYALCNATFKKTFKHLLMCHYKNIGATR

Experiment [6] concerns the target Voltage-gated inwardly rectifying potassium channel KCNH2 (Homo sapiens, UniProt Q12809). It is filed as functional. The note with it: read-out: AC50.
The target of experiment [7] is T6, Amine oxidase [flavin-containing] A (Homo sapiens, UniProt P21397).
T6 sequence (P21397 whole entry): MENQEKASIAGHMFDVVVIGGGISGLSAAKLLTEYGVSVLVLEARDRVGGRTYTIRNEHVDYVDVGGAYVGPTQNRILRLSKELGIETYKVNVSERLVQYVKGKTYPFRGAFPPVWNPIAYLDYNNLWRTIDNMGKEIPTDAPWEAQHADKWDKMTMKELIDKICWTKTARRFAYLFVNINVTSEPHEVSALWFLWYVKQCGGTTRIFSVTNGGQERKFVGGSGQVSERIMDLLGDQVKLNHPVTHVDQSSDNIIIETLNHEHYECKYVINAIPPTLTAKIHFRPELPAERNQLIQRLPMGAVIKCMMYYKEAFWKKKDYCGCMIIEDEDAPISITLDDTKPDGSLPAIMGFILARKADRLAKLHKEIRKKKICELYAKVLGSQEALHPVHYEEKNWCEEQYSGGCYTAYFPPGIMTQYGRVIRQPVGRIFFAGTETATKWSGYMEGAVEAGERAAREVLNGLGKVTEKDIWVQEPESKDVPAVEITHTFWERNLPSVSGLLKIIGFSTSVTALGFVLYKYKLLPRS
It is filed as functional.

Experiment [8] deals with 5-hydroxytryptamine receptor 2B (Homo sapiens, UniProt P41595). It is filed as functional, cell-based.
For experiment [9], the target named is T1, Prostaglandin G/H synthase 1. The experiment is classed as functional. This is another data set of the same source.

By AC50 is commonly meant the midpoint of the concentration-response curve, whichever way the signal moves.

Bounds are passed on as bounds.
Also: assay procedure not described here.

Sequence of Histamine H3 receptor (Q9Y5N1 whole entry): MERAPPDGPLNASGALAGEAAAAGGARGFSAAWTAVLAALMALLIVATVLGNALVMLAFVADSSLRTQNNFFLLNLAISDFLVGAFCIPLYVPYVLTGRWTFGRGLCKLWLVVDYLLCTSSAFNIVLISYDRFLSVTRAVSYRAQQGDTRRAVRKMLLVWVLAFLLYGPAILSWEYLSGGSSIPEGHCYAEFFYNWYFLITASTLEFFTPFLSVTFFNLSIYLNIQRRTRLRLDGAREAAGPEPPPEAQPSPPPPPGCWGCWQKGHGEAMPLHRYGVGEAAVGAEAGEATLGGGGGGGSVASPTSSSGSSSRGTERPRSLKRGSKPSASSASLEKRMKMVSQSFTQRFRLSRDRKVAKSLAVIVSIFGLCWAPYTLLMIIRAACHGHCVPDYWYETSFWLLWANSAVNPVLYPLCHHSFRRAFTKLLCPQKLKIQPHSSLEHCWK
Sequence of Voltage-gated inwardly rectifying potassium channel KCNH2 (Q12809 whole entry): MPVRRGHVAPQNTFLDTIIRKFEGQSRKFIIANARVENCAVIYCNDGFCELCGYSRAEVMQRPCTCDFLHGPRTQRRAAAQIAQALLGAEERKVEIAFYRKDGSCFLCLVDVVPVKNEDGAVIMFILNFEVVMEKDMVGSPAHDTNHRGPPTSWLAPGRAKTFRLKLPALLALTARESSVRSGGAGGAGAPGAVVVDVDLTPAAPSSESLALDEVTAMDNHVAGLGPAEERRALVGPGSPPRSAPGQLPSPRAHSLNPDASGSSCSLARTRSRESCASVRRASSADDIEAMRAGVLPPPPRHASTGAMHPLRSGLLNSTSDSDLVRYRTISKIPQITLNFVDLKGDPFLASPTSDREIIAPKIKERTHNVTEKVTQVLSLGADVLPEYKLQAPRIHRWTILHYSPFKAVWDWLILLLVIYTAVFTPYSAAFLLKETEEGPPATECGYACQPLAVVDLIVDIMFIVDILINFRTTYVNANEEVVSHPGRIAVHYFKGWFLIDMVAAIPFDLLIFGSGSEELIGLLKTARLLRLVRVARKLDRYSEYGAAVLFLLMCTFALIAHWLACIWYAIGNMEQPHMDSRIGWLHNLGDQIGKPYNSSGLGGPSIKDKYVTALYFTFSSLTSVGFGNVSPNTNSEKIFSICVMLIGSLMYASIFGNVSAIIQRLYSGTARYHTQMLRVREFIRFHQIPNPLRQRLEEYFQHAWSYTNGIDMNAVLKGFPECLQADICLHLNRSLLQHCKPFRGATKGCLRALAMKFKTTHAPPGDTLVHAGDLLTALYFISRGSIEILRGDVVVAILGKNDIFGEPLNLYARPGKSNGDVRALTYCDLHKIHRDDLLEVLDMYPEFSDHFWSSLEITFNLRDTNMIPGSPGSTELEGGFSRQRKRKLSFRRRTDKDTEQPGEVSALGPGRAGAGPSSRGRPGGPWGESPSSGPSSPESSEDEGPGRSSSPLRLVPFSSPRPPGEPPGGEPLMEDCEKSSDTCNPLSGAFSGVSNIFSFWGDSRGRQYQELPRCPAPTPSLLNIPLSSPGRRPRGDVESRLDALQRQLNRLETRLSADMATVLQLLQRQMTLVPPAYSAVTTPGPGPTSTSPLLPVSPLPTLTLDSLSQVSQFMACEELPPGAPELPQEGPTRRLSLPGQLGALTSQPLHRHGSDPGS
Sequence of Vascular endothelial growth factor receptor 2 (P35968 whole entry): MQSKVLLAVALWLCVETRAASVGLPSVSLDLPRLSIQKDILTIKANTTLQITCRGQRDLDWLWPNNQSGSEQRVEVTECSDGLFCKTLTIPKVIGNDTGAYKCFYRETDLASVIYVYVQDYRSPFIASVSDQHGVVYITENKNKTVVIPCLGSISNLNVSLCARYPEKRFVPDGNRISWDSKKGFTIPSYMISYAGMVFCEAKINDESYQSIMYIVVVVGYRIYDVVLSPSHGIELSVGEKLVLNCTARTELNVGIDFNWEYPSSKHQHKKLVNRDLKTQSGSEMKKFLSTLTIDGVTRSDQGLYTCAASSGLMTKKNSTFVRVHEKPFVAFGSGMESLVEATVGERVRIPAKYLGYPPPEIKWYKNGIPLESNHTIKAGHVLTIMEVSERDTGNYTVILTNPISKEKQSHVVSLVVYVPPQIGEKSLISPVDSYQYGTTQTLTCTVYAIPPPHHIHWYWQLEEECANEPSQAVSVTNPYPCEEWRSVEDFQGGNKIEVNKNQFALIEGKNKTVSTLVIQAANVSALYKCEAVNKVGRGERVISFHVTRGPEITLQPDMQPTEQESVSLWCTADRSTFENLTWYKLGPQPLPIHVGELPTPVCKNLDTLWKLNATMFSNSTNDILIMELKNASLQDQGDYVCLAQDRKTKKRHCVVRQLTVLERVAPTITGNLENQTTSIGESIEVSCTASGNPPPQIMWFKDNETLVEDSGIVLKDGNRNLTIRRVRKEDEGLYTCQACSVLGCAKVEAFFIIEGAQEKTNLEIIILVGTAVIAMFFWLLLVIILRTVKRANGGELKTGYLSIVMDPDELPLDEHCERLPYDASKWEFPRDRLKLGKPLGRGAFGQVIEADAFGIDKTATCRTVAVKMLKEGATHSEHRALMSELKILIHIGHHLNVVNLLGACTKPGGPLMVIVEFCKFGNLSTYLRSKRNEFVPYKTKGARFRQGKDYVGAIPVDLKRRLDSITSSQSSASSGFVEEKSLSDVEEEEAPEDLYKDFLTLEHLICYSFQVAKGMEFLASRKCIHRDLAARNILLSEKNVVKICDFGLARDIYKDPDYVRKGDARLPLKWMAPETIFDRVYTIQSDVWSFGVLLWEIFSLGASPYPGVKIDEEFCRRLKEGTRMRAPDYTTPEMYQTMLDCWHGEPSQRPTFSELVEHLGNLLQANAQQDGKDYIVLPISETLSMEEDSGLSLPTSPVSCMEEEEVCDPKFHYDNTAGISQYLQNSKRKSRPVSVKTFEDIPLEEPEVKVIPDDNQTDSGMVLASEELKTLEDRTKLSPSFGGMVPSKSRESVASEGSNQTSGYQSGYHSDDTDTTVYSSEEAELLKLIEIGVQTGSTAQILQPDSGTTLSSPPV
Sequence of Acetylcholinesterase (P22303 whole entry): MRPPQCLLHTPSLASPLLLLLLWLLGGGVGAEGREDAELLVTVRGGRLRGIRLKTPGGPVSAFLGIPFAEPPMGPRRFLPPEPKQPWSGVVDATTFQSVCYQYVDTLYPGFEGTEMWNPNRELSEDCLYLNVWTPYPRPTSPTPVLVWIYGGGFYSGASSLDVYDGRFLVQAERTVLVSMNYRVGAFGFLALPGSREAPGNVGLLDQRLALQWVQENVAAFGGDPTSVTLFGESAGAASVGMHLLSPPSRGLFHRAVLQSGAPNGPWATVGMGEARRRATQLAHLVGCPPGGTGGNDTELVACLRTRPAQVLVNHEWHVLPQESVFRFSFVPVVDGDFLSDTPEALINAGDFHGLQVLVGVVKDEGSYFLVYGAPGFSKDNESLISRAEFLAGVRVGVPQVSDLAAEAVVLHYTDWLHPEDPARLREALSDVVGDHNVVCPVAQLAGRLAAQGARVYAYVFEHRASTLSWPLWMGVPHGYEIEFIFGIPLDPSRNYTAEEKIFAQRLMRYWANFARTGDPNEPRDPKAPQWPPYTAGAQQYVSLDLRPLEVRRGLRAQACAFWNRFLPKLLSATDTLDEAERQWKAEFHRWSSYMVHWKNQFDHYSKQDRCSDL
T1 sequence (P23219 whole entry): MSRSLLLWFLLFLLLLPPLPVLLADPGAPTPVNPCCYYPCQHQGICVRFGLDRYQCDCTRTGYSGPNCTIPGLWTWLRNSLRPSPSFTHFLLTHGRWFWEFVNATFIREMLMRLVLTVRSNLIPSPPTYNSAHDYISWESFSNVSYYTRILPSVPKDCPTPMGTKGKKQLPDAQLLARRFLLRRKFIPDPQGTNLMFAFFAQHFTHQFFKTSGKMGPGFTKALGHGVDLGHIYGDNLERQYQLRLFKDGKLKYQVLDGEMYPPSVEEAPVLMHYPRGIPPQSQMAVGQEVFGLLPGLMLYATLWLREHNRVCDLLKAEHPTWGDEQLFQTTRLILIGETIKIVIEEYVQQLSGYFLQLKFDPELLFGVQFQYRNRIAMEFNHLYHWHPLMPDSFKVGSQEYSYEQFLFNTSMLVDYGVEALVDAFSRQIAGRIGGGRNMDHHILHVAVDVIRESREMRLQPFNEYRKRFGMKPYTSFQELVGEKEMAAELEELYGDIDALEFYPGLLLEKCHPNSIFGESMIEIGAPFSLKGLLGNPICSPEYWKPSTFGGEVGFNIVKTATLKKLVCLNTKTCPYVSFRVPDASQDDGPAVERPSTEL
Sequence of Mu-type opioid receptor (P35372 whole entry): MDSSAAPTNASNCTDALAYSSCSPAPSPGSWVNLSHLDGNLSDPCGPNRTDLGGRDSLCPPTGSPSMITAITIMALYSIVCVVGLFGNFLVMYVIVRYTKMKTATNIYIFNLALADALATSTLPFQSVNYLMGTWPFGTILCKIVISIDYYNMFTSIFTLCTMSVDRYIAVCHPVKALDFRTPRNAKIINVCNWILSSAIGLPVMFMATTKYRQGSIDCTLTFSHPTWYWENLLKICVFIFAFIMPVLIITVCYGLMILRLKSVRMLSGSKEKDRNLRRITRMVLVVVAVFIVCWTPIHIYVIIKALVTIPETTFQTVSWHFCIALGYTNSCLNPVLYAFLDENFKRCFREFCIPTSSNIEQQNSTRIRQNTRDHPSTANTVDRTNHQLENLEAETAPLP
Sequence of 5-hydroxytryptamine receptor 2B (P41595 whole entry): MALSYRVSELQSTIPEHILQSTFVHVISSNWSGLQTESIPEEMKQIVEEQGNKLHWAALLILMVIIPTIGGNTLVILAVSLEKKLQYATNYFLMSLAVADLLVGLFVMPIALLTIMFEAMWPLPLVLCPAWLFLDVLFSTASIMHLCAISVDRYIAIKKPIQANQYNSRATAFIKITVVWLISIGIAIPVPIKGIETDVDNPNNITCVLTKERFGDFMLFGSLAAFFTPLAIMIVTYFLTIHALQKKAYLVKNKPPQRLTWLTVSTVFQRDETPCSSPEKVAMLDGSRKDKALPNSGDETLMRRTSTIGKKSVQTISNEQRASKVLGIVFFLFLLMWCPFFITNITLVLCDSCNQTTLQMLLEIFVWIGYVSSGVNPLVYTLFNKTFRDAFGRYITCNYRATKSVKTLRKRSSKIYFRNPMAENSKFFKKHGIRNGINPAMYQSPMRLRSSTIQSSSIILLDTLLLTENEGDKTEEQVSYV

As for `Nc1ccc2cc3ccc(N)cc3nc2c1` [PROFLAVINE], the AC50 in experiment [1] is 22.1 µM; in experiment [2], 25.8 µM; on Adenosine receptor A3 it was 10.2 µM; at Histamine H3 receptor it was 16.3 µM; in [3], 7.27 µM; at Acetylcholinesterase it was 1.84 µM. Besides, the AC50 at Prothrombin is 9.65 µM; in experiment [4], greater than 30 µM; at Thromboxane A2 receptor it was greater than 0.3 µM; at Mu-type opioid receptor, 3.64 µM; in experiment [5], 2.61 µM; in [6], 5 µM. Further, the AC50 in [7] is 0.786 µM; in experiment [8] it was greater than 30 µM; in experiment [9] it was 5.49 µM.

Turning to `CC(C)COC(=O)OCN1C(=O)CN(CCN2CC(=O)N(COC(=O)OCC(C)C)C(=O)C2)CC1=O` [SOBUZOXANE], the AC50 (in experiment [1]; in experiment [2]; on Adenosine receptor A3; at Histamine H3 receptor; in experiment [3]; at Acetylcholinesterase) was greater than 30 µM in each case. Besides, the AC50 (on Prothrombin; in [4]; at Thromboxane A2 receptor; at Mu-type opioid receptor; in [5]; in experiment [6]) was greater than 30 µM each time. Further, the AC50 in [7] is greater than 30 µM; in experiment [8], greater than 30 µM; in experiment [9], 29.8 µM.

For `Cc1cc(NS(=O)(=O)c2ccc(N)cc2)nc(C)n1` [SULFISOMIDINE], the AC50 (in [1]; in [2]; at Adenosine receptor A3; on Histamine H3 receptor; in experiment [3]; at Acetylcholinesterase) was greater than 30 µM throughout. Moreover, the AC50 (on Prothrombin; in experiment [4]; at Thromboxane A2 receptor; on Mu-type opioid receptor; in [5]; in experiment [6]) was greater than 30 µM each time. Besides, the AC50 in experiment [7], in experiment [8] and in [9] was greater than 30 µM in each case.

In the case of `CCN1CCCC1CNC(=O)c1cc(S(N)(=O)=O)ccc1OC` (stereo not given) [SULPIRIDE], the AC50 is 11.7 µM in experiment [1]; greater than 30 µM in experiment [2]; greater than 30 µM at Adenosine receptor A3; greater than 30 µM at Histamine H3 receptor; 7.52 µM in experiment [3]; greater than 30 µM on Acetylcholinesterase. Moreover, the AC50 (on Prothrombin; in experiment [4]; at Thromboxane A2 receptor; at Mu-type opioid receptor; in experiment [5]; in experiment [6]) was greater than 30 µM in each case. For the same compound, the AC50 in [7] is greater than 30 µM; in experiment [8] it was greater than 30 µM; in experiment [9] it was 15.8 µM.

Take `OB1OCc2cc(F)ccc21` [TAVABOROLE]: the AC50 (in [1]; in [2]; at Adenosine receptor A3; at Histamine H3 receptor; in experiment [3]; at Acetylcholinesterase) was greater than 30 µM throughout. Besides, the AC50 was greater than 30 µM at Prothrombin; 14.1 µM in [4]; greater than 30 µM at Thromboxane A2 receptor; greater than 30 µM at Mu-type opioid receptor; greater than 30 µM in experiment [5]; greater than 30 µM in experiment [6]. Moreover, the AC50 in experiment [7], in experiment [8] and in experiment [9] was greater than 30 µM each time.

Regarding `O=c1[nH]c(=O)n(C2CCCO2)cc1F` (stereo not given) [TEGAFUR], the AC50 (in [1]; in experiment [2]; on Adenosine receptor A3; on Histamine H3 receptor; in experiment [3]; on Acetylcholinesterase) was greater than 30 µM in each case. Also, the AC50 (at Prothrombin; in [4]; on Thromboxane A2 receptor; on Mu-type opioid receptor; in experiment [5]; in experiment [6]) was greater than 30 µM throughout. The AC50 in experiment [7], in experiment [8] and in [9] was greater than 30 µM in each case.

As for `CC(C)(C)NCC(O)COc1cccc2c1SCCC2` (stereo not given) [TERTATOLOL], the AC50 was greater than 30 µM in [1]; greater than 30 µM in experiment [2]; greater than 30 µM on Adenosine receptor A3; greater than 30 µM at Histamine H3 receptor; 6.6 µM in [3]; greater than 30 µM on Acetylcholinesterase. Also, the AC50 (on Prothrombin; in experiment [4]; at Thromboxane A2 receptor; on Mu-type opioid receptor; in experiment [5]; in experiment [6]) was greater than 30 µM in each case. Moreover, the AC50 in [7], in experiment [8] and in experiment [9] was greater than 30 µM each time.

Consider `Nc1ccc(S(=O)(=O)c2cnc(N)s2)cc1` [THIAZOLSULFONE], for which the half-maximal activity concentration (AC50) was greater than 30 µM in [1]; greater than 30 µM in [2]; 13.8 µM at Adenosine receptor A3; greater than 30 µM at Histamine H3 receptor; greater than 30 µM in [3]; greater than 30 µM on Acetylcholinesterase. In addition, the AC50 (on Prothrombin; in [4]; on Thromboxane A2 receptor; at Mu-type opioid receptor; in [5]; in experiment [6]) was greater than 30 µM each time. Besides, the AC50 in [7], in [8] and in experiment [9] was greater than 30 µM in each case.

`CC(CNC(=O)c1ccccc1)C(=O)OCC(=O)[C@@]12OC(C)(C)O[C@@H]1C[C@H]1[C@@H]3CCC4=CC(=O)C=C[C@]4(C)[C@@]3(F)[C@@H](O)C[C@@]12C` (stereo not given in full) [TRIAMCINOLONE BENETONIDE]: the AC50 (in experiment [1]; in experiment [2]; on Adenosine receptor A3; on Histamine H3 receptor; in experiment [3]; on Acetylcholinesterase) was greater than 30 µM throughout. The AC50 (on Prothrombin; in [4]; on Thromboxane A2 receptor; at Mu-type opioid receptor; in [5]; in [6]) was greater than 30 µM in each case. Further, the AC50 in experiment [7], in experiment [8] and in experiment [9] was greater than 30 µM in each case.
